Here are results for 14 compounds from article PMC8474116, “Discovery of Novel Acetamide-Based Heme Oxygenase-1 Inhibitors with Potent In Vitro Antiproliferative Activity” (Journal of Medicinal Chemistry, 2021).

The target in data set [1] is T1, HO-1 (Rattus norvegicus, UniProt P06762).
T1 construct: selected to use the most native (i.e., closest to in vivo) forms of HO-1 and HO-2; from tissue; host or cells: rat spleen (male Sprague-Dawley), microsomal fraction
T1 sequence (P06762 1-289): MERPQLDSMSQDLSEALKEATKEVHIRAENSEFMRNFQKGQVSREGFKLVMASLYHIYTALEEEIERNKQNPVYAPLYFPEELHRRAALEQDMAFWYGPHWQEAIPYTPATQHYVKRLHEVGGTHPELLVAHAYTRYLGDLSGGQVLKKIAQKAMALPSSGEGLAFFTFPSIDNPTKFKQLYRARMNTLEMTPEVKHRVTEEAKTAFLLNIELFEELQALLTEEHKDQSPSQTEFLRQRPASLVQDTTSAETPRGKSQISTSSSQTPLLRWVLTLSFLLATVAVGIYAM
Briefly: HO-1 enzymatic activity, rat spleen microsomal fraction (bilirubin formation). The format is biochemical. As to conditions: for IC50 / HO-1 inhibitory activity (in words): rat spleen microsomal fraction; for IC50: mean of triplicate ± SD. How it is done: (§1) HO-1 and HO-2 were obtained, respectively, from the rat spleen and brain as the microsomal fraction prepared by differential centrifugation; the dominance of HO-1 protein in the rat spleen and HO-2 in the rat brain has been well documented.[24] These particular microsomal preparations were selected to use the most native (i.e., closest to in vivo) forms of HO-1 and HO-2. Spleen and brain (Sprague-Dawley rats) microsomal fractions were prepared according to the procedure outlined by Ryter et al.[2] The experiments reported in the present paper complied with the current Italian law and met the guidelines of the Institutional Animal Care and Use Committee of the Ministry of Health (Directorate General for Animal Health and Veterinary Medicines, Italy) “Dosing of enzymatic activities in rat microsomes” (2018–2022), project code 02769.N.VLY. The experiments were performed in male Sprague-Dawley albino rats (150 g body weight and age 45 d). They had free access to water and were kept at room temperature with a natural photoperiod (12 h light–12 h dark cycle). For measuring HO-1 and HO-2 activities, each rat was sacrificed and their spleen and brain were excised and weighed. A homogenate (15%, w/v) of spleens and brains pooled from four rats was prepared in ice-cold HO-homogenizing buffer (50 mM Tris buffer, pH 7.4, containing 0.25 M sucrose) using a Potter–Elvehjem homogenizing system with a Teflon pestle. The microsomal fraction of rat spleen and brain homogenate was obtained by centrifugation at 10 000g for 20 min at 4 °C, followed by centrifugation of the supernatant at 100 000g for 60 min at 4 °C. The 100 000g pellet (microsomes) was resuspended in 100 mM of potassium phosphate buffer, pH 7.8, containing 2 mM MgCl2 with a Potter–Elvehjem homogenizing system. The rat spleen and brain microsomal fractions were divided into equal aliquots, placed into microcentrifuge tubes, and stored at −80 °C for up to 2 months.
(§2) Liver cytosol has been used as a source of biliverdin reductase. Rat liver was perfused through the hepatic portal vein with cold 0.9% NaCl; then, it was cut and flushed with 2 × 20 mL of ice-cold PBS to remove all of the blood. Liver tissue was homogenized in 3 volumes of a solution containing 1.15% KCl w/v and Tris buffer 20 mM, pH 7.8 on ice. Homogenates were centrifuged at 10 000g for 20 min at 4 °C. The supernatant was decanted and centrifuged at 100 000g for 1 h at 4 °C to sediment the microsomes. The 100 000g supernatant was saved and then stored in small amounts at −80 °C after its protein concentration was measured.
(§3) The HO-1 and HO-2 activities were determined by measuring the bilirubin formation using the difference in absorbance at 464–530 nm, as described by Ryter et al.[2] Reaction mixtures (500 μL) consisted of 20 mM of Tris–HCl, pH 7.4, (1 mg/mL) microsomal extract, 0.5–2 mg/mL of biliverdin reductase, 1 mM of NADPH, 2 mM of glucose 6-phosphate (G6P), 1 U of G6P dehydrogenase, 25 μM of hemin, and 10 μL of DMSO (or the same volume of DMSO solution of test compounds to a final concentration of 100, 10, and 1 μM). Incubations were carried out for 60 min at 37 °C in a circulating water bath in the dark. Reactions were stopped by adding the same volume of chloroform. After recovering the chloroform phase, the amount of bilirubin formed was measured with a double-beam spectrophotometer as OD464–530 nm (extinction coefficient, 40 mM/cm^–1 for bilirubin). One unit of the enzyme was defined as the amount of enzyme catalyzing the formation of 1 nmol of bilirubin/mg protein/h.

In data set [2] the target is T2, HO-2 (Rattus norvegicus, UniProt P23711).
T2 construct: selected to use the most native (i.e., closest to in vivo) forms of HO-1 and HO-2; from tissue; host or cells: rat brain (male Sprague-Dawley), microsomal fraction
T2 sequence (P23711 1-315): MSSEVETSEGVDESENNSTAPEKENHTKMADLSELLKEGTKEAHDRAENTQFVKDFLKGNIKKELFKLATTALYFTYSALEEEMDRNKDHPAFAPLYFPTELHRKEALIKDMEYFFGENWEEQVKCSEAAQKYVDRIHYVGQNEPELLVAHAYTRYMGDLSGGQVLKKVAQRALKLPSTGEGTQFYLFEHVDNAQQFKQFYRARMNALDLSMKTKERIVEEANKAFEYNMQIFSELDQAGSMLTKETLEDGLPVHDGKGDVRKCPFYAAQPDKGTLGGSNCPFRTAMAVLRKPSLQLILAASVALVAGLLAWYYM
In words: HO-2 enzymatic activity, rat brain microsomal fraction (bilirubin formation). It is filed as biochemical. As to conditions: mean of triplicate ± SD. How it is done:
as §1, §2, §3

The test system of data set [3] is U87MG cells. Briefly: MTT cell viability assay, U87MG. The format is cell-based, human. Conditions: 48 h, at both concentrations 1 and 10 μM. How it is done:
(§4) Experiments were performed on human GBM cell lines U87MG (ATCCC number #HTB-14) and A172 (ATCCC #CRL-1620) on DU145 (ATCC HTB-81) and human lung adenocarcinoma A549 (ATCC CCL-185-LUC2). All cell lines were obtained from the American Type Culture Collection (ATCC, Rockville, MD). Cells were grown in Dulbecco’s modified Eagle’s medium (DMEM) supplemented with 10% of heat-inactivated fetal bovine serum (FBS), 100 U/mL of penicillin, and 100 μg/mL of streptomycin (Sigma-Aldrich, Steinheim, Germany). Cells were incubated at 37 °C in a humidified atmosphere with 5% CO2.
(§5) The effect of selected compounds 7i and 7l–p on cell viability was assessed by performing an MTT assay. Cells were seeded into 96-well plates at a density of 7 × 10^3 cells/well in 100 μL of culture medium. After 24 h, cells were treated with selected compounds at three different concentrations (1 μM, 10 μM, and 50 μM) for 48 h. Following treatments, 0.5 mg/mL of 3-[4,5-dimethylthiazol-2-yl]-2,5-diphenyltetrazolium bromide (MTT) (Sigma-Aldrich) was added to each well and incubated for 4 h at 37 °C. Finally, dimethyl-sulfoxide (DMSO) was used to dissolve formazan salts, and absorbance was measured at 570 nm in a microplate reader (Biotek Synergy-HT). Eight replicate wells were used for each group.
On the technique in general: Formazan colour is commonly taken as a measure of viable cells.

In data set [4] the test system is A172 cells. In words: MTT cell viability assay, A172. It is filed as cell-based, human. Conditions: 48 h, all tested concentrations (1, 10, 50 μM). How it is done:
as §4, §5

The subject of data set [5] is HO-1. In words: HO-1 protein expression by Western blot, A172. The format is cell-based, human. As to conditions: A172, 10 μM, 48 h. The method, then: Proteins were extracted from total cell lysate, as previously described.[61] Briefly, cell lines were added to a buffer containing 20 mM Tris (pH 7.4), 2 mM EDTA, 0.5 mM EGTA, 50 mM mercaptoethanol, and […] sucrose supplemented with phosphatase and protease inhibitor cocktails (Roche Diagnostics, Monza, Italy). Subsequently, protein samples were sonicated twice for 20′ by using an ultrasonic probe, followed by centrifugation at 10 000g for 10 min at 4 °C. Sample proteins (30 μg) were diluted in 4X NuPage LDS sample buffer (Invitrogen, NP0007), heated at 80 °C for 5 min, and then separated on a Biorad Criterion XT 4–15% Bis–Tris gel (BIO-RAD) by electrophoresis and then transferred to a PVDF membrane (BIO-RAD). Blots were blocked using the Odyssey Blocking Buffer (LI-COR Biosciences) and probed with appropriate antibodies: HO-1 antibody (GeneTex GTX101147), goat polyclonal anti-VEGF (cat. no. sc-1836, Santa Cruz Biotechnology), and rabbit polyclonal anti-β-tubulin (cat n.sc-9104, Santa Cruz Biotechnology) and β-actin antibody (GeneTex GTX109639).
The secondary antibodies goat antirabbit (Odyssey, #926-32211; Odyssey #926-68021) and donkey antigoat IRDye 800CW (cat #926-32214; Li-Cor Biosciences) were used at 1:7000. Blots were scanned, and densitometric analysis was performed with the Odyssey Infrared Imaging System. Values were normalized to β-actin and to β-tubulin.
A general note: A western blot detects proteins with antibodies after separation by electrophoresis.

SMILES strings stand for the structures.

A word on the melting point: it is the temperature, or range, at which the solid turns liquid. Broadly, the IC50 is the concentration needed to halve the response being measured. Low readings indicate greater potency in that assay, high ones weaker potency in that assay. For `CN(C(=O)Cn1ccnc1)C(c1ccccc1)C1CCCCC1` (stereo not drawn) [7k, N-(Cyclohexyl(phenyl)methyl)-2-(1H-imidazol-1-yl)-N-methylacetamide], the melting point fell in the range of 130 to 133 °C. For the same compound, in data set [1], the “fold less potent than compound 7i (HO-1)” value is recorded as 30 fold and half-maximal inhibition (IC50) required 26.8 ± 1.61 µM.

Regarding `O=C(Cn1ccnc1)NCc1ccccc1` [7f], in data set [1], the “fold decrease in potency with respect to 4 (HO-1)” value is 2 fold and the midpoint of inhibition, the IC50, lay at 57.6 ± 2.38 µM.

`CN(C(=O)Cn1ccnc1)c1ccccc1` [7b, 2-(1H-Imidazol-1-yl)-N-methyl-N-phenylacetamide] gave a melting point of 117 to 119 °C.

Take `CN(C(=O)Cn1ccnc1)C(c1ccccc1)C1CCCC1` (stereo not drawn) [7j, N-(Cyclopentyl(phenyl)methyl)-2-(1H-imidazol-1-yl)-N-methylacetamide]: the melting point lay within 134 to 136 °C. In data set [1], the “fold less potent than compound 7i (HO-1)” value turned out to be 13 fold and the IC50 amounted to 11.4 ± 0.97 µM.

With `CN(C(=O)Cn1ccnc1)C(c1ccccc1)c1cccc(Br)c1` (stereo not drawn) [7m, N-((3-Bromophenyl)(phenyl)methyl)-2-(1H-imidazol-1-yl)-N-methylacetamide], the melting point is 82 to 83 °C. For the same compound, in data set [1], the “HO-1 vs HO-2 selectivity (in words)” value was “superimposable HO-1 and HO-2 IC50 values”; the IC50 was 0.9 ± 0.03 µM. Also, in data set [1] (ratio of HO-2 and HO-1 IC50), the “SI (HO-2/HO-1)” value was found to be 1.2. Besides, it took 1.1 ± 0.04 µM to reach half-maximal inhibition in data set [2] (IC50). In data set [3], the cell viability reduction result is on record as “more than 30%”. In addition, in data set [4], the “cell viability reduction (in words)” value was “weak activity”. In addition, in data set [5], the “HO-1 protein expression (in words)” value is “enhanced its levels”.

Regarding `O=C(c1ccccc1)N(CCCn1ccnc1)Cc1ccccc1` [11b, N-(3-(1H-Imidazol-1-yl)propyl)-N-benzylbenzamide], in data set [1], the “HO-1 inhibitory activity (in words)” value is recorded as “comparable to the hit compound 4” and the IC50 worked out at 31 ± 1.74 µM.

In turn, `O=C(Cn1ccnc1)Nc1cccc(Br)c1` [7c, N-(3-Bromophenyl)-2-(1H-imidazol-1-yl)acetamide] gave a melting point of 158 to 162 °C. This compound yielded an IC50 in data set [1] of 35.7 ± 1.2 µM.

In the case of `CC(=O)N(CCCn1ccnc1)Cc1ccccc1` [11a, N-(3-(1H-Imidazol-1-yl)propyl)-N-benzylacetamide], in data set [1], the “HO-1 inhibitory activity (in words)” value was “almost inactive” and inhibition was half-maximal at 224 ± 8.1 µM (IC50).

In turn, `CN(C(=O)Cn1ccnc1)c1ccc(I)cc1` [7e, 2-(1H-Imidazol-1-yl)-N-(4-iodophenyl)-N-methylacetamide] had an IC50 in data set [1] of 96.1 ± 1.44 µM.

In data set [1], `O=C(Cn1ccnc1)Nc1ccccc1` [7a] came in with an IC50 of 110 ± 3.1 µM.

As for `O=C(Cc1ccccc1)N(CCCn1ccnc1)Cc1ccccc1` [11c, N-(3-(1H-Imidazol-1-yl)propyl)-N-benzyl-2-phenylacetamide], in data set [1], the “HO-1 inhibitory activity (in words)” value is reported as “comparable to the hit compound 4” and the IC50 was found to be 32 ± 1.48 µM.

`O=C(Cn1ccnc1)N(Cc1ccccc1)Cc1ccccc1` [7h, N,N-Dibenzyl-2-(1H-imidazol-1-yl)acetamide] yielded a melting point of 99 to 102 °C. Also, half-maximal inhibition in data set [1] (IC50) was put at 64.8 ± 1.56 µM.

For `O=C(Cn1ccnc1)Nc1ccc(I)cc1` [7d, 2-(1H-Imidazol-1-yl)-N-(4-iodophenyl)acetamide], the melting point lay in the range of 222 to 225 °C. For the same compound, the IC50 in data set [1] came out at 8.34 ± 0.21 µM.

For `CN(Cc1ccccc1)C(=O)Cn1ccnc1` [7g, N-Benzyl-2-(1H-imidazol-1-yl)-N-methylacetamide], the melting point lay within 106 to 111 °C. For the same compound, in data set [1], the half-maximal inhibitory concentration (IC50) came out at 50.6 ± 1.84 µM.
